Test results published in publication PMC7907166, “AOA-2 Derivatives as Outer Membrane Protein A Inhibitors for Treatment of Gram-Negative Bacilli Infections” (Frontiers in Microbiology, 2021).

What was measured:
A. baumannii ATCC 17978 [1] = assay: Bacterial adhesion assay to A549 cells; type: cell-based; conditions: bacteria pre-incubated with peptide 250 μg/mL 30 min; MOI 500, 2 h; CFU count
Procedure: (§1) The human pneumocyte cell line type II A549, derived from a human lung carcinoma, obtained from the American Type Culture Collection was used and cultured in DMEM medium (Invitrogen, Spain) supplemented with 10% of heat-inactivated fetal bovine serum, 50 μg/mL vancomycin (Laboratorios Normon, Spain), 20 μg/mL gentamicin (Normon Laboratories, Spain), 0.25 μg/mL amphotericin B mL (Invitrogen, Spain) and 1% HEPES (Invitrogen, Spain) in a humidified incubator, 5% CO2 at 37°C. Routine passage of A549 cells was performed every 3–4 days. Cells were seeded 24 h in 96-well plates (Sarstedt, Germany) for the cell viability assay, and in 24-well plates (Sarstedt, Germany) for the bacterial adhesion assays.
(§2) A. baumannii ATCC 17978, P. aeruginosa PAO1 and E. coli ATCC 25922 strains were incubated with AOA-2 (31.25, 62.5, 125, and 250 μg/mL, 30 min), AOA-2 derivatives RW01, RW02, RW03, RW06, RW07, RW08, RW09, RW10, RW11, and RW13 (250 μg/mL, 30 min), or AOA-2 derivatives RW01, RW02, RW03, RW06 (31.25, 62.5, and 125 μg/mL, 30 min), and added at 10^8 CFU/mL, corresponding to a multiplicity of infection (MOI) of 500, to the A549 cells for 2 h at 5% CO2 and 37°C. Subsequently, infected A549 cells were washed five times with prewarmed PBS 1X and lysed with 0.5% Triton X-100. Serial dilutions of these lysates were made and plated on blood agar plates (Blood-Agar Columbia, Becton Dickinson Microbiology Systems, United States) and incubated at 37°C for 24 h for colony counting and then determination of CFU/mL that attached to A549 cells.

P. aeruginosa PAO1 [2] = assay: Bacterial adhesion assay to A549 cells; type: cell-based; conditions: for adherence of P. aeruginosa to A549 cells reduced to: bacteria pre-incubated with peptide 250 μg/mL 30 min, MOI 500, 2 h, CFU count; for adherence of PAO1 strain to A549 cells compared with AOA-2: peptide 125, 62.5 and 31.25 μg/mL, some statistical differences, Figure 2B; for adherence of PAO1 strain to A549 cells (in words): peptide 250 μg/mL, 30 min, Figure 2A
Procedure: as §1, §2

E. coli ATCC 25922 [3] = assay: Bacterial adhesion assay to A549 cells; type: cell-based; conditions: for adherence of E. coli to A549 cells reduced to: bacteria pre-incubated with peptide 250 μg/mL 30 min, MOI 500, 2 h, CFU count; for adherence of ATCC 25922 strain to A549 cells (in words): peptide 250 μg/mL, 30 min, Figure 2A
Procedure: as §1, §2

A549 cells = test system: A549 cells; design: method as in Vila-Farrés et al., 2017; conditions: cited from earlier work
[4] = test system: colistin-resistant A. baumannii; conditions: ref Parra-Millán et al., 2018; cited from earlier work
Text: The therapeutic efficacy of these […] should also be further evaluated in combination with antimicrobial agents used in the clinical setting.

A. baumannii = test system: A. baumannii; design: method as in Parra-Millán et al., 2018; conditions: ref Parra-Millán et al., 2018; cited from earlier work
Text: Therefore, we thought it would be interesting to examine the capacity of RW01 and RW06 to potentiate the activity of colistin against A. baumannii ATCC 17978 strain.

A. baumannii ATCC 17978 [5] = assay: Bacterial cytotoxicity: viability of infected A549 cells (MTT); type: cell-based; conditions: ATCC 17978 pretreated with peptide 125, 62.5 and 31.25 μg/mL, 30 min; 24 h infection
Procedure: (§3) A549 cells were incubated with the peptide derivatives RW01, RW02, RW03, RW06, RW07, RW08, RW09, RW10, RW11, and RW13 (0, 3.5, 7, 15, 35, 62, 125, 250, and 500 μg/mL) for 24 h with 5% CO2 at 37°C. Prior the evaluation of the peptides cytotoxicity, A549 cells were washed three times with prewarmed PBS 1X. Subsequently, quantitative cytotoxicity was evaluated by measuring the mitochondrial reduction activity using the 3-(4,5-dimethylthiazol-2-yl)-2,5-diphenyltetrazolium bromide (MTT) assay as described previously ([Smani et al., 2013]). The percentage of […] was calculated from the absorbance at 570 nm as follow: [(Absorbance 570 nm of treated cells/Absorbance 570 nm mean of untreated cells) × 100].
(§4) A549 cells were infected with 10^8 CFU/mL, corresponding to a MOI of 500, of A. baumannii ATCC 17978, P. aeruginosa PAO1 and E. coli ATCC 25922 strains pretreated with AOA-2 or AOA-2 derivatives RW01, RW02, RW03, and RW06 (31.25, 62.5, and 125 μg/mL, 30 min) for 24 h with 5% CO2 at 37°C. Prior to the evaluation of bacterial cytotoxicity, viable bacteria are first removed from A549 cell culture by washing these A549 cells five times with PBS 1X. Subsequently, cell viability was evaluated as described above.

P. aeruginosa PAO1 [6] = assay: as above; type: cell-based; conditions: PAO1 pretreated with peptide 125, 62.5 and 31.25 μg/mL; 24 h infection
Procedure: as §3, §4

E. coli ATCC 25922 [7] = assay: as above; type: cell-based; conditions: ATCC 25922 pretreated with peptide 125, 62.5 and 31.25 μg/mL; 24 h infection
Procedure: as §3, §4

[8] = test system: A. baumannii, P. aeruginosa, and E. coli; conditions: in vivo administration, ref Vila-Farrés et al., 2017, cited from earlier work
Text: This study focuses on the paradigm of interference in pathogenesis, that is, disarming pathogenic bacteria by neutralizing their virulence factors ([Dickey et al., 2017]).

Row | Substance | adherence of A. baumannii to A549 cells reduced to (A. baumannii ATCC 17978 [1]) [%] | adherence of P. aeruginosa to A549 cells reduced to (P. aeruginosa PAO1 [2]) [%] | adherence of PAO1 strain to A549 cells compared with AOA-2 (P. aeruginosa PAO1 [2]) | adherence of E. coli to A549 cells reduced to (E. coli ATCC 25922 [3]) [%] | adherence of PAO1 strain to A549 cells (in words) (P. aeruginosa PAO1 [2]) | adherence of ATCC 25922 strain to A549 cells (in words) (E. coli ATCC 25922 [3]) | also measured
1 | &3Pal-D-Pro-Arg-3Pal-D-Pro-Arg& (head to tail) [RW02, AOA-2 derivative with tryptophan analog 3Pal] | 43.58 | 42.51 | reduced better | 61.11 |  |  | 
2 | &Trp-D-Pro-Lys-Trp-D-Pro-Lys& (head to tail) [RW07, AOA-2 derivative with arginine analog lysine] |  |  |  |  | reduced | reduced | 
3 | &Trp-D-Pro-Arg-Trp-D-Pro-Arg& (head to tail) [AOA-2] | 36.62 | 84.47 |  | 65.05 |  |  | toxicity in human lung epithelial cells (A549 cells): did not show toxicity; therapeutic efficacy when combined with colistin [4]: good therapeutic efficacy; synergy with colistin (A. baumannii): synergize with colistin; cell viability of infected A549 cells with respect to untreated strain (A. baumannii ATCC 17978 [5]): did not increase significantly; cell viability of infected A549 cells with respect to untreated strain (P. aeruginosa PAO1 [6]): did not increase significantly; cell viability of infected A549 cells with respect to untreated strain (E. coli ATCC 25922 [7]): did not increase significantly; mice mortality ([8]; especially in A. baumannii): significant decrease; bacterial load in tissues [8]: large decrease
4 | &2Nal-D-Pro-Arg-2Nal-D-Pro-Arg& (head to tail) [RW03, AOA-2 derivative with tryptophan analog 2Nal] | 55.47 | 20.71 | reduced better | 29.62 |  |  | adherence of ATCC 25922 to host cells compared with AOA-2 (E. coli ATCC 25922 [3]; peptide 125, 62.5 and 31.25 μg/mL, Figure 2B): reduced with some statistical differences
5 | &2Nal-D-Pro-Arg-3Pal-D-Pro-Arg& (head to tail) [RW11] |  |  |  |  | reduced |  | 
6 | &3Pal-D-Pro-Arg-Trp-D-Pro-Tyr& (head to tail) [RW13] |  |  |  |  | reduced | reduced | 
